Results as given in article PMC10082216 (Nature Communications, 2023).

Columns and labels:
healthy subjects = experiment: TD-6450 phase I clinical study (SAD/MAD): safety and tolerability; assay type: in vivo, human
Description: This was a phase I, double-blinded, randomized, placebo-controlled, Single Ascending Dose (SAD) and Multiple Ascending Dose (MAD) study to evaluate the safety and tolerability of TD-6450 in healthy subjects (primary objective) and the pharmacokinetics (secondary objective). The study is available in the website clinicaltrial.gov (identifier NCT02022306), it started on February the 4th 2014 (first subject enrolled) and was concluded on August the 18th 2014 (last subject concluded), in the Healthcare Discoveries (a subsidiary of ICON Development Solutions) in San Antonio, Texas, USA. Healthy, non-smoking subjects with no history of significant medical conditions, with a BMI included between 18 and 30 kg/m^2, who weight at least 50 kg, between 18 and 60 years old, were selected for this study. Subjects were able and willing to give an informed consent. No bias was reported in the selection process. The protocol and all amendments for this study and all accompanying material that was provided to subjects (including advertisements, subject’s information sheets, and descriptions of the study used to obtain informed consent) were submitted by the investigator to the centralized Institutional Review Board (IRB), namely the IntegReview, established in 1999 at Austin (Texas, U.S.A.) and acquired by Advarra in 2020. Documented approval was obtained before the study was started, on March the 28th 2014. This study was conducted in accordance with the protocol, the principles of the International Conference on Harmonization of Technical Requirements for Registration of Pharmaceuticals for Human Use (ICH) Guideline for Good Clinical Practice (GCP), the United States Code of Federal Regulations, the principles of the World Medical Association Declaration of Helsinki, Ethical Principles for Medical Research Involving Human Subjects, and all applicable regulatory requirement.
Primary and secondary outcomes were pre-defined as follows: Safety and tolerability as a primary outcome, pharmacokinetics as a secondary outcome. Safety and tolerability were evaluated using standard measures, including adverse event (AE) monitoring, clinical laboratory tests (hematology, serum chemistry, coagulation, and urinalysis), vital signs, physical examinations, and 12-lead electrocardiograms (ECGs). […] Pharmacokinetics were evaluated by the collection of blood samples from each subject at following time points: predose (within 30 min before dosing, only in day 1 60 min before dosing), and 0.5,1,2,3,4,6,8 and 12 hours after dosing.
This study was conducted in two parts, Part A (SAD) and Part B (MAD). For the Part A, the age of enrolled subjects ranged from 20 to 60 years, with a mean age range of 32.1 to 46.2 years. Most subjects were male (73 total subjects) and most were white (55 subjects) or black (22 subjects). For Part B of the study, ages ranged from 23 to 60 years with a similar mean age across treatment groups. Most subjects were male (25 total subjects) and all were either white (18 subjects) or black (12 subjects). For each part of the study, the mean body mass index (BMI) and creatinine clearance were similar across treatment groups. […] Part A: Healthy subjects were sequentially enrolled and randomly assigned to each dose cohort (up to 10 dose-ascending cohorts were planned, including a fed arm in the food effect cohort) to receive either a single dose of TD-6450 or placebo. For each dose cohort, 8 subjects were randomized in a 3:1 ratio (6 subjects received TD-6450 and 2 subjects received placebo). The starting dose of TD-6450 was 0.5 mg with a planned maximum dose of 1000 mg. Upon review of the 500-mg cohort PK data, the decision was made to not escalate to the 1000-mg cohort because of exposure saturation at ≥ 500 mg. The following doses were administered: 0.5 mg, 1.5 mg, 5 mg, 15 mg, 30 mg, 60 mg, 120 mg, 240 mg, and 500 mg. […]

[1] = read-out: Cmax in humans; at the lowest dose; ref not given; cited from earlier work

Compound: CNC(=O)N1C[C@@H](C)N(c2ccc(C(=O)Nc3ccc(-c4ccc(-c5c[nH]c([C@@H]6CCCN6C(=O)[C@@H](NC(=O)OC)C(C)C)n5)cc4)c(OC(F)(F)F)c3)cn2)C[C@@H]1C [TD-6450]
- At least one AE N (%) (healthy subjects; MAD 60 mg once daily 14 days): 4 (50.0) N (%)
- At least one SAE N (%) (healthy subjects; MAD 60 mg once daily 14 days): 0 (0.0) N (%)
- Death N (%) (healthy subjects; MAD 60 mg once daily 14 days): 0 (0.0) N (%)
- Discontinuation due to an AE N (%) (healthy subjects; MAD 60 mg once daily 14 days): 0 (0.0) N (%)
- At least one AE N (%) (healthy subjects; MAD 120 mg once daily 14 days): 3 (37.5) N (%)
- At least one SAE N (%) (healthy subjects; MAD 120 mg once daily 14 days): 0 (0.0) N (%)
- Death N (%) (healthy subjects; MAD 120 mg once daily 14 days): 0 (0.0) N (%)
- Discontinuation due to an AE N (%) (healthy subjects; MAD 120 mg once daily 14 days): 0 (0.0) N (%)
- At least one AE N (%) (healthy subjects; MAD 240 mg once daily 14 days): 3 (37.5) N (%)
- At least one SAE N (%) (healthy subjects; MAD 240 mg once daily 14 days): 0 (0.0) N (%)
- Death N (%) (healthy subjects; MAD 240 mg once daily 14 days): 0 (0.0) N (%)
- Discontinuation due to an AE N (%) (healthy subjects; MAD 240 mg once daily 14 days): 0 (0.0) N (%)
- At least one AE N (%) (healthy subjects; SAD 0.5 mg): 3 (50.0) N (%)
- At least one SAE N (%) (healthy subjects; SAD 0.5 mg): 0 (0.0) N (%)
- Death N (%) (healthy subjects; SAD 0.5 mg): 0 (0.0) N (%)
- Discontinuation due to an AE N (%) (healthy subjects; SAD 0.5 mg): 0 (0.0) N (%)
- At least one AE N (%) (healthy subjects; SAD 1.5 mg): 3 (50.0) N (%)
- At least one SAE N (%) (healthy subjects; SAD 1.5 mg): 0 (0.0) N (%)
- Death N (%) (healthy subjects; SAD 1.5 mg): 0 (0.0) N (%)
- Discontinuation due to an AE N (%) (healthy subjects; SAD 1.5 mg): 0 (0.0) N (%)
- At least one AE N (%) (healthy subjects; SAD 5 mg): 0 (0.0) N (%)
- At least one SAE N (%) (healthy subjects; SAD 5 mg): 0 (0.0) N (%)
- Death N (%) (healthy subjects; SAD 5 mg): 0 (0.0) N (%)
- Discontinuation due to an AE N (%) (healthy subjects; SAD 5 mg): 0 (0.0) N (%)
- At least one AE N (%) (healthy subjects; SAD 15 mg): 1 (16.7) N (%)
- At least one SAE N (%) (healthy subjects; SAD 15 mg): 0 (0.0) N (%)
- Death N (%) (healthy subjects; SAD 15 mg): 0 (0.0) N (%)
- Discontinuation due to an AE N (%) (healthy subjects; SAD 15 mg): 0 (0.0) N (%)
- At least one AE N (%) (healthy subjects; SAD 30 mg): 1 (16.7) N (%)
- At least one SAE N (%) (healthy subjects; SAD 30 mg): 0 (0.0) N (%)
- Death N (%) (healthy subjects; SAD 30 mg): 0 (0.0) N (%)
- Discontinuation due to an AE N (%) (healthy subjects; SAD 30 mg): 0 (0.0) N (%)
- At least one AE N (%) (healthy subjects; SAD 60 mg): 0 (0.0) N (%)
- At least one SAE N (%) (healthy subjects; SAD 60 mg): 0 (0.0) N (%)
- Death N (%) (healthy subjects; SAD 60 mg): 0 (0.0) N (%)
- Discontinuation due to an AE N (%) (healthy subjects; SAD 60 mg): 0 (0.0) N (%)
- At least one AE N (%) (healthy subjects; SAD 120 mg): 1 (16.7) N (%)
- At least one SAE N (%) (healthy subjects; SAD 120 mg): 0 (0.0) N (%)
- Death N (%) (healthy subjects; SAD 120 mg): 0 (0.0) N (%)
- Discontinuation due to an AE N (%) (healthy subjects; SAD 120 mg): 0 (0.0) N (%)
- At least one AE N (%) (healthy subjects; SAD 240 mg): 0 (0.0) N (%)
- At least one SAE N (%) (healthy subjects; SAD 240 mg): 0 (0.0) N (%)
- Death N (%) (healthy subjects; SAD 240 mg): 0 (0.0) N (%)
- Discontinuation due to an AE N (%) (healthy subjects; SAD 240 mg): 0 (0.0) N (%)
- At least one AE N (%) (healthy subjects; SAD 500 mg): 2 (33.3) N (%)
- At least one SAE N (%) (healthy subjects; SAD 500 mg): 0 (0.0) N (%)
- Death N (%) (healthy subjects; SAD 500 mg): 0 (0.0) N (%)
- Discontinuation due to an AE N (%) (healthy subjects; SAD 500 mg): 0 (0.0) N (%)
- severe adverse events in Phase 1 study (healthy subjects; single or multiple doses): no severe adverse events

Compound: C[C@H]1Cc2c([nH]c3cc(Cl)c(F)cc23)[C@@]2(N1)C(=O)Nc1ccc(Cl)cc12 [NITD609, cipargamin]
- Cmax [1]: 630 nM
